Values joined by “and” are separate entries in the source; they are usually repeats but may differ in a detail not shown here. Equal entries are not always repeated.
What was measured:
Settings in all cases: incubation time: 72 h
DU-4475 [1] = experiment: normalised viability (% of control), CellTiter-Blue; higher = more viable cells (about 100 = DMSO control)
Method: (§1)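 DSRT, CellTiter-Blue viability, 72 h incubation. Signal is normalised to DMSO and benzethonium chloride controls. Value is the normalised response at dose 7.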

CAL-51 [2] = experiment: as above
Method: as §1

HDQ-P1 [3] = experiment: as above
Method: as §1

MDA-MB-453 [4] = experiment: as above
Method: as §1

CAL-85-1 [5] = experiment: as above
Method: as §1

CAL-148 [6] = experiment: as above
Method: as §1

MDA-MB-468 = experiment: normalised response (% of control), CellTiter-Glo; higher = more viable cells (100 = DMSO, 0 = benzethonium chloride kill control)
Method: (§2)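 DSRT, 72 h incubation, CellTox Green / CellTiter-Glo readout. Signal is normalised to DMSO and benzethonium chloride controls. Value is the normalised response at the highest dose.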

DU-4475 [7] = experiment: as above
Method: as §2

MCF-10A = experiment: as above
Method: as §2

CAL-51 [8] = experiment: as above
Method: as §2

MDA-MB-231 = experiment: as above
Method: as §2

SK-BR-3 = experiment: as above
Method: as §2

HDQ-P1 [9] = experiment: as above
Method: as §2

Hs578T = experiment: as above
Method: as §2

MDA-MB-453 [10] = experiment: as above
Method: as §2

MFM-223 = experiment: as above
Method: as §2

HCC1599 = experiment: as above
Method: as §2

HCC1143 = experiment: as above
Method: as §2

HCC1937 = experiment: as above
Method: as §2

CAL-85-1 [11] = experiment: as above
Method: as §2

BT-474 = experiment: as above
Method: as §2

CAL-120 = experiment: as above
Method: as §2

BT-549 = experiment: as above
Method: as §2

MDA-MB-436 = experiment: as above
Method: as §2

CAL-148 [12] = experiment: as above
Method: as §2

| SMILES | normalised viability (DU-4475 [1]) | normalised viability (CAL-51 [2]) | normalised viability (HDQ-P1 [3]) | normalised viability (MDA-MB-453 [4]) | normalised viability (CAL-85-1 [5]) | normalised viability (CAL-148 [6]) | normalised response (MDA-MB-468) | normalised response (DU-4475 [7]) | normalised response (MCF-10A) | normalised response (CAL-51 [8]) | normalised response (MDA-MB-231) | normalised response (SK-BR-3) | normalised response (HDQ-P1 [9]) | normalised response (Hs578T) | normalised response (MDA-MB-453 [10]) | normalised response (MFM-223) | normalised response (HCC1599) | normalised response (HCC1143) | normalised response (HCC1937) | normalised response (CAL-85-1 [11]) | normalised response (BT-474) | normalised response (CAL-120) | normalised response (BT-549) | normalised response (MDA-MB-436) | normalised response (CAL-148 [12]) |
| --- | --- | --- | --- | --- | --- | --- | --- | --- | --- | --- | --- | --- | --- | --- | --- | --- | --- | --- | --- | --- | --- | --- | --- | --- | --- |
| CNC(=O)c1cc(Oc2ccc(NC(=O)Nc3ccc(Cl)c(C(F)(F)F)c3)cc2)ccn1 [Sorafenib] (100 nM) | 94.2% and 117% | 106% | 102% and 77.9% | 90.8% and 101% | 90.1% and 102% | 108% | – | – | – | – | – | – | – | – | – | – | – | – | – | – | – | – | – | – | – |
| COc1ccc(-c2cc3c(C)nc(N)nc3n([C@H]3CC[C@H](OCCO)CC3)c2=O)cn1 (1000 nM) | 42.9% | 12.9% | 12.2% | 7.65% | 23.1% | 18.1% | – | – | – | – | – | – | – | – | – | – | – | – | – | – | – | – | – | – | – |
| Nc1ccccc1NC(=O)c1ccc(CNc2nccc(-c3cccnc3)n2)cc1 [Mocetinostat] (1000 nM) | 39.2% | 77.8% | 90.1% | 41.6% | 68.7% | 65.5% | – | – | – | – | – | – | – | – | – | – | – | – | – | – | – | – | – | – | – |
| Nc1ccccc1NC(=O)c1ccc(CNc2nccc(-c3cccnc3)n2)cc1 [Mocetinostat] (10000 nM) | – | – | – | – | – | – | 5.88% | 4.3% | 54.1% | 18.3% | 21.7% | 1.68% | 38.2% | 29% | 9.77% | 36.7% | 17.1% | 24.9% | 49.8% | 6.94% | 16.9% | 32% | 27.1% | 31.8% | 12.2% |
| O=C1c2c(O)ccc(O)c2C(=O)c2c(NCCNCCO)ccc(NCCNCCO)c21 [Mitoxantrone] (1000 nM) | – | – | – | – | – | – | 59.4% | 49.5% | 74.2% | 49% | 82.9% | 56.2% | 85% | 89.4% | 129% | 100% | 85.2% | 73.9% | 87.4% | 73.9% | 79.3% | 91.2% | 73.6% | 40.4% | 40.4% |
| C[C@]12C=CC(=O)C=C1CC[C@@H]1[C@@H]2[C@@H](O)C[C@@]2(C)[C@H]1CC[C@]2(O)C(=O)CO [Prednisolone] (10000 nM) | – | – | – | – | – | – | 113% | 104% | 96.4% | 88.8% | 151% | 96.7% | 84.7% | 109% | 94.9% | 101% | 102% | 112% | 101% | 118% | 144% | 76.9% | 99% | 104% | 111% |
| CNC(=O)c1cc(Oc2ccc(NC(=O)Nc3ccc(Cl)c(C(F)(F)F)c3)cc2)ccn1 [Sorafenib] (1000 nM) | – | – | – | – | – | – | 112% | 98.3% | 118% | 146% | 108% | 96.9% | 99.3% | 96% | 92.4% | 78.6% | 94.1% | 106% | 102% | 108% | 102% | 112% | 102% | 120% | 113% |
| Cc1c(CN2CCN(C(=O)[C@H](C)O)CC2)sc2c(N3CCOCC3)nc(-c3cnc(N)nc3)nc12 [GDC-0980] (10000 nM) | – | – | – | – | – | – | 17.8% | 15.7% | 17.8% | 8.48% | 34.3% | 19.2% | 10.6% | 20.3% | 9.21% | 26.2% | 66.2% | 20.7% | 29.5% | 18.2% | 47.6% | 23.2% | 19% | 43.1% | 10% |
| Cc1ccc(Nc2nccc(N(C)c3ccc4c(C)n(C)nc4c3)n2)cc1S(N)(=O)=O [Pazopanib] (10000 nM) | – | – | – | – | – | – | 83.3% | 104% | 102% | 67.5% | 102% | 105% | 98.1% | 88.5% | 91.8% | 55.8% | 94.9% | 97.2% | 102% | 103% | 91.4% | 89.4% | 48.1% | 106% | 106% |
| C[C@]12O[C@H](C[C@]1(O)CO)n1c3ccccc3c3c4c(c5c6ccccc6n2c5c31)CNC4=O [Lestaurtinib] (1000 nM) | – | – | – | – | – | – | 35.6% | 5.65% | 28.5% | 91.1% | 54.5% | 29.1% | 61.6% | 61.4% | 79% | 46.4% | 24.3% | 71.9% | 56% | 32.5% | 56.8% | 49.5% | 30.3% | 44.7% | 99.6% |
| COc1ccc(-c2cc3c(C)nc(N)nc3n([C@H]3CC[C@H](OCCO)CC3)c2=O)cn1 (10000 nM) | – | – | – | – | – | – | 4.65% | 0.26% | 7.97% | 0.68% | 9.59% | 18.6% | 10.8% | 5.22% | 3.84% | 13% | 44% | 7.29% | 8.02% | 4.45% | 23.9% | 26.1% | 8.65% | 37.1% | 4.36% |
| CCC/C=C/C=C/C(=O)O[C@H]1/C(=C/C(=O)OC)C[C@H]2C[C@H]([C@@H](C)O)OC(=O)C[C@H](O)C[C@@H]3C[C@H](OC(C)=O)C(C)(C)[C@](O)(C[C@@H]4C/C(=C/C(=O)OC)C[C@H](/C=C/C(C)(C)[C@]1(O)O2)O4)O3 [Bryostatin 1] (100 nM) | – | – | – | – | – | – | 98.3% | 97.4% | 95.7% | 96.5% | 93.1% | 73.6% | 81.5% | 88.6% | 103% | 104% | 86.4% | 94.1% | 98.6% | 98.5% | 81.2% | 104% | 87.9% | 111% | 107% |
| COc1nc(N)nc2c1ncn2[C@@H]1O[C@H](CO)[C@@H](O)[C@@H]1O [Nelarabine] (10000 nM) | – | – | – | – | – | – | 87.1% | 97.8% | 86.2% | 143% | 94.3% | 76.6% | 91.6% | 90.5% | 81.3% | 89.5% | 117% | 94.9% | 91.7% | 103% | 87% | 98.6% | 95.8% | 90.1% | 78.7% |
| O=C(CCBr)N1CCN(C(=O)CCBr)CC1 [Pipobroman] (10000 nM) | – | – | – | – | – | – | 100% | 101% | 104% | 86.5% | 101% | 108% | 107% | 103% | 110% | 103% | 99% | 103% | 98.2% | 98.2% | 94.7% | 95.8% | 101% | 95% | 101% |
| Cc1nc(Nc2ncc(C(=O)Nc3c(C)cccc3Cl)s2)cc(N2CCN(CCO)CC2)n1 [Dasatinib] (1000 nM) | – | – | – | – | – | – | 73.1% | 95.5% | 24.3% | 47.9% | 34.1% | 97.1% | 27.1% | 31.9% | 80.5% | 80.9% | 97.7% | 60.3% | 55.2% | 35.8% | 45.7% | 48.6% | 55.3% | 91.9% | 103% |
| CO[C@@H](C(=O)N1Cc2[nH]nc(NC(=O)c3ccc(N4CCN(C)CC4)cc3)c2C1)c1ccccc1 [Danusertib] (10000 nM) | – | – | – | – | – | – | 50.1% | 37.3% | 17% | 31.1% | 42.7% | 85.6% | 44.2% | 46.1% | 95% | 45.6% | 78.5% | 47.1% | 85.3% | 67.8% | 55.5% | 22.1% | 14.7% | 57.5% | 94.9% |
| Nc1cccc2c1CN(C1CCC(=O)NC1=O)C2=O (configuration not stated) [Lenalidomide] (10000 nM) | – | – | – | – | – | – | 107% | 99.3% | 102% | 114% | 103% | 98.5% | 93.6% | 98.1% | 102% | 100% | 103% | 95.3% | 102% | 103% | 94% | 93.6% | 98% | 91.3% | 104% |
| COc1cc(CCc2cc(NC(=O)c3ccc(N4CC(C)NC(C)C4)cc3)n[nH]2)cc(OC)c1 (configuration not stated) [AZD4547] (1000 nM) | – | – | – | – | – | – | 104% | 94% | 74.9% | 108% | 103% | 89.6% | 93.7% | 87.6% | 85% | 53.3% | 80.9% | 96.5% | 95.8% | 105% | 99.6% | 68.2% | 88.7% | 98% | 93% |
| CCN(CC)CCNC(=O)c1c(C)[nH]c(/C=C2\C(=O)Nc3ccc(F)cc32)c1C [Sunitinib] (1000 nM) | – | – | – | – | – | – | 107% | 94.2% | 66.3% | 109% | 102% | 105% | 86.1% | 97.5% | 97.3% | 81.8% | 105% | 103% | 91.7% | 107% | 98.9% | 82.6% | 108% | 93.7% | 113% |

Reference: the supplement of paper PMC4862054
